Assay results from patent publication US20210115366A1, “METHODS OF MAKING IMPROVED HUMAN INTESTINAL ORGANOID COMPOSITIONS VIA APPLICATION OF STRAIN AND HUMAN INTESTINAL ORGANOID COMPOSITIONS THEREOF” (Children's Hospital Medical Center, priority 2017, published 2021).
pEC50: −log10 of the molar value. “Also recorded” adds a separate entry of the source.

Tests used:
tHIO = assay: Ex vivo muscle strength (organ bath, isometric force) of tHIO muscle strips; parameters: species or system human
Description: (§1) After an equilibration period, muscle force contraction was assayed using a logarithmic series of bethanechol doses ranging in concentration from 1 nM to 10 mM. Representative tensile response recordings are plotted for tHIO, tHIO+S and adult jejunum (FIG. 7B). […] To better visualize the differences between tHIO and tHIO+S the data was also plotted sans adult jejunum (FIG. 7C, right panel).
(§2) tHIO and tHIO+S grafts were harvested and placed in ice-cold Hank's Balanced Salt Solution (HBSS). Human surgical samples were maintained overnight at 4° C. in HBSS prior to assaying in order to minimize the effects of anesthetics. Muscle strips (4-6 mm in length and 1-2 mm in width) were dissected from the samples. Strips were then suspended vertically in an organ bath chamber (Radnoti) filled with freshly prepared Krebs-Ringer solution (Sigma; supplemented with 2.5 mM CaCl and 15 mM NaHCO3; pH 7.4), warmed to 37° C. and gassed with 95% O2+5% CO2. Segments were allowed to equilibrate for an hour at an initial tension of 0.5 g. The contractile response of the muscle was continuously recorded, using 4-chamber tissue-organ bath chambers with isometric force transducers (0-25 g; AD Instruments) coupled to a multi-channel bridge amplifiers and data recorder (AD Instruments; PowerLab 4/35) linked to a computer equipped with LabChart Pro software (AD Instruments). […]

adult human jejunum = assay: Ex vivo muscle strength (organ bath, isometric force) of adult jejunum muscle strips
Description: as §1, §2

tHIO+S = assay: Ex vivo muscle strength (organ bath, isometric force) of tHIO+S muscle strips; parameters: species or system human
Description: as §1, §2

infant jejunum = assay: Ex vivo muscle strength (organ bath, isometric force) of infant jejunum muscle strips; parameters: species or system human; conditions: 10 μM after bethanechol dose series
Description: as §1, §2

[1] = 10 μM after bethanechol dose series

pEC50 (adult human jejunum; adult human jejunum muscle strips, logarithmic doses 1 nM to 10 mM, read-out: effective concentration to achieve half of the maximal response (EC50), muscle contraction)	pEC50 (tHIO+S; Homo sapiens, logarithmic doses 1 nM to 10 mM, read-out: effective concentration to achieve half of the maximal response (EC50), muscle contraction)	Compound	tensile response to bethanechol (tHIO; 1 nM to 10 mM, EC50 with 95% confidence could not be determined)	tension before and after administration of scopolamine (relaxation) (infant jejunum)	tension before and after administration of scopolamine (relaxation) (tHIO; [1])	tension before and after administration of scopolamine (relaxation) (adult human jejunum; adult jejunum muscle strips, 10 μM after bethanechol dose series)	tension before and after administration of scopolamine (relaxation) (tHIO+S; [1])
5.48	4.83	CC(C[N+](C)(C)C)OC(N)=O (stereo not shown) [bethanechol, Carbamyl-p-methylcholine chloride]	low overall tensile response				
		CN1[C@@H]2C[C@@H](OC(=O)[C@H](CO)c3ccccc3)C[C@H]1[C@@H]1O[C@@H]12 [scopolamine]		Relaxation was successfully induced	Relaxation was successfully induced; also recorded: relaxation is observed	Relaxation was successfully induced	Relaxation was successfully induced; also recorded: relaxation is observed
